From PubChem BioAssay (NCI)
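Where inhibition never reached the appropriate level, the endpoint shown equals the highest concentration tested. Otherwise, values were interpolated linearly from a five-concentration, 48-hour dose response in 96-well plates. At the GI50, growth is halved. TGI: concentration producing complete growth inhibition.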

How the values were obtained:
Experiment in all cases: NCI anticancer screen, dose series, 48 h
[1] = test system: 786-0 renal
[2] = test system: A498 renal
[3] = test system: A549 NSCLC
[4] = test system: ACHN renal
[5] = test system: BT-549 breast
[6] = test system: CAKI-1 renal
[7] = test system: CCRF-CEM leukemia
[8] = test system: COLO 205 colon
[9] = test system: DU-145 prostate
[10] = test system: EKVX NSCLC
[11] = test system: HCC-2998 colon
[12] = test system: HCT-116 colon
[13] = test system: HCT-15 colon
[14] = test system: HL-60(TB) leukemia
[15] = test system: HOP-62 NSCLC
[16] = test system: HOP-92 NSCLC
[17] = test system: HT29 colon
[18] = test system: IGROV1 ovarian
[19] = test system: K-562 leukemia
[20] = test system: KM12 colon
[21] = test system: LOX IMVI melanoma
[22] = test system: M14 melanoma
[23] = test system: MALME-3M melanoma
[24] = test system: MCF7 breast
[25] = test system: MDA-MB-231 breast
[26] = test system: MDA-MB-435
[27] = test system: MOLT-4 leukemia
[28] = test system: NCI-H226 lung
[29] = test system: NCI-H460 lung
[30] = test system: NCI-H522 lung
[31] = test system: NCI/ADR-RES ovarian
[32] = test system: OVCAR-3 ovarian
[33] = test system: OVCAR-4 ovarian
[34] = test system: OVCAR-5 ovarian
[35] = test system: OVCAR-8 ovarian
[36] = test system: PC-3 prostate
[37] = test system: RPMI-8226 leukemia
[38] = test system: RXF 393 renal
[39] = test system: SF-268 CNS
[40] = test system: SF-295 CNS
[41] = test system: SF-539 CNS
[42] = test system: SK-MEL-2 melanoma
[43] = test system: SK-MEL-28 melanoma
[44] = test system: SK-MEL-5 melanoma
[45] = test system: SN12C renal
[46] = test system: SNB-19 CNS
[47] = test system: SNB-75 CNS
[48] = test system: SR leukemia
[49] = test system: SW-620 colon
[50] = test system: T-47D breast
[51] = test system: U251 CNS
[52] = test system: UACC-257 melanoma
[53] = test system: UACC-62 melanoma
[54] = test system: UO-31 renal

`COc1cc(-c2ccc3ncnc(NCc4ccccc4)c3c2)cnc1OC` showed a GI50 [1] of 2.99 µM, a TGI [1] of over 100 µM and a GI50 [2] of 1.78 µM. It also gave a TGI [2] of 6.64 µM, a GI50 [3] of 3.59 µM and a TGI [3] of over 100 µM. For the same compound, the GI50 [4] was 2.92 µM, the TGI [4] was over 100 µM and the GI50 [5] was 3.25 µM. It also gave a TGI [5] of over 100 µM, a GI50 [6] of 2.02 µM and a TGI [6] of over 100 µM. The GI50 [7] was 4 µM, the TGI [7] was over 100 µM and the GI50 [8] was 7.48 µM. For the same compound, the TGI [8] was over 100 µM, the GI50 [9] was 3.43 µM and the TGI [9] was over 100 µM. The GI50 [10] was 1.89 µM, the TGI [10] was over 100 µM and the GI50 [11] was 14.4 µM. It also gave a TGI [11] of over 100 µM, a GI50 [12] of 13.1 µM and a TGI [12] of over 100 µM. The GI50 [13] was 5.68 µM, the TGI [13] was over 100 µM and the GI50 [14] was 6.42 µM. It also gave a TGI [14] of over 100 µM, a GI50 [15] of 6.88 µM and a TGI [15] of over 100 µM. For the same compound, the GI50 [16] was 0.544 µM, the TGI [16] was 4.82 µM and the GI50 [17] was 5.02 µM. It also gave a TGI [17] of over 100 µM, a GI50 [18] of 1.03 µM and a TGI [18] of 3.52 µM. It also gave a GI50 [19] of 51 µM, a TGI [19] of over 100 µM and a GI50 [20] of 50.7 µM. It also gave a TGI [20] of over 100 µM, a GI50 [21] of 4.19 µM and a TGI [21] of 27.4 µM. For the same compound, the GI50 [22] was 16.4 µM, the TGI [22] was over 100 µM and the GI50 [23] was 9.59 µM. The TGI [23] was over 100 µM, the GI50 [24] was 0.658 µM and the TGI [24] was 19 µM. The GI50 [25] was 4.72 µM, the TGI [25] was over 100 µM and the GI50 [26] was 56 µM. The TGI [26] was over 100 µM, the GI50 [27] was 3.8 µM and the TGI [27] was over 100 µM. The GI50 [28] was 4.68 µM, the TGI [28] was over 100 µM and the GI50 [29] was 5.83 µM. The TGI [29] was over 100 µM, the GI50 [30] was 4.65 µM and the TGI [30] was over 100 µM. It also gave a GI50 [31] of 7.97 µM, a TGI [31] of over 100 µM and a GI50 [32] of 3.94 µM. The TGI [32] was over 100 µM, the GI50 [33] was 62.7 µM and the TGI [33] was over 100 µM. It also gave a GI50 [34] of 2.97 µM, a TGI [34] of over 100 µM and a GI50 [35] of 9.42 µM. The TGI [35] was over 100 µM, the GI50 [36] was 2.79 µM and the TGI [36] was over 100 µM. The GI50 [37] was 4.38 µM, the TGI [37] was over 100 µM and the GI50 [38] was 1.33 µM. For the same compound, the TGI [38] was 6.1 µM, the GI50 [39] was 6.43 µM and the TGI [39] was over 100 µM. For the same compound, the GI50 [40] was 3.83 µM, the TGI [40] was over 100 µM and the GI50 [41] was 4.8 µM. It also gave a TGI [41] of over 100 µM, a GI50 [42] of 19.5 µM and a TGI [42] of over 100 µM. It also gave a GI50 [43] of 9.68 µM, a TGI [43] of over 100 µM and a GI50 [44] of 10.7 µM. For the same compound, the TGI [44] was over 100 µM, the GI50 [45] was 3.74 µM and the TGI [45] was over 100 µM. It also gave a GI50 [46] of 9.33 µM, a TGI [46] of over 100 µM and a GI50 [47] of 0.655 µM. For the same compound, the TGI [47] was 6.87 µM, the GI50 [48] was 7.24 µM and the TGI [48] was over 100 µM. The GI50 [49] was 34.2 µM, the TGI [49] was over 100 µM and the GI50 [50] was 0.192 µM. The TGI [50] was 2.82 µM, the GI50 [51] was 77.3 µM and the TGI [51] was over 100 µM. The GI50 [52] was 69.8 µM, the TGI [52] was over 100 µM and the GI50 [53] was 2.97 µM. For the same compound, the TGI [53] was over 100 µM, the GI50 [54] was 1.45 µM and the TGI [54] was over 100 µM.
